“Also recorded” adds a separate entry of the source.
Columns and labels:
[1] = biological target: T1, human AOX1 I1085A (Homo sapiens, UniProt Q06278, I1085A); experiment: Methotrexate hydroxylation by purified recombinant human AOX1 I1085A mutant; assay type: in vitro ADME; conditions: I1085A single mutant, Figure 5
T1 sequence (Q06278 1-1338 I1085A): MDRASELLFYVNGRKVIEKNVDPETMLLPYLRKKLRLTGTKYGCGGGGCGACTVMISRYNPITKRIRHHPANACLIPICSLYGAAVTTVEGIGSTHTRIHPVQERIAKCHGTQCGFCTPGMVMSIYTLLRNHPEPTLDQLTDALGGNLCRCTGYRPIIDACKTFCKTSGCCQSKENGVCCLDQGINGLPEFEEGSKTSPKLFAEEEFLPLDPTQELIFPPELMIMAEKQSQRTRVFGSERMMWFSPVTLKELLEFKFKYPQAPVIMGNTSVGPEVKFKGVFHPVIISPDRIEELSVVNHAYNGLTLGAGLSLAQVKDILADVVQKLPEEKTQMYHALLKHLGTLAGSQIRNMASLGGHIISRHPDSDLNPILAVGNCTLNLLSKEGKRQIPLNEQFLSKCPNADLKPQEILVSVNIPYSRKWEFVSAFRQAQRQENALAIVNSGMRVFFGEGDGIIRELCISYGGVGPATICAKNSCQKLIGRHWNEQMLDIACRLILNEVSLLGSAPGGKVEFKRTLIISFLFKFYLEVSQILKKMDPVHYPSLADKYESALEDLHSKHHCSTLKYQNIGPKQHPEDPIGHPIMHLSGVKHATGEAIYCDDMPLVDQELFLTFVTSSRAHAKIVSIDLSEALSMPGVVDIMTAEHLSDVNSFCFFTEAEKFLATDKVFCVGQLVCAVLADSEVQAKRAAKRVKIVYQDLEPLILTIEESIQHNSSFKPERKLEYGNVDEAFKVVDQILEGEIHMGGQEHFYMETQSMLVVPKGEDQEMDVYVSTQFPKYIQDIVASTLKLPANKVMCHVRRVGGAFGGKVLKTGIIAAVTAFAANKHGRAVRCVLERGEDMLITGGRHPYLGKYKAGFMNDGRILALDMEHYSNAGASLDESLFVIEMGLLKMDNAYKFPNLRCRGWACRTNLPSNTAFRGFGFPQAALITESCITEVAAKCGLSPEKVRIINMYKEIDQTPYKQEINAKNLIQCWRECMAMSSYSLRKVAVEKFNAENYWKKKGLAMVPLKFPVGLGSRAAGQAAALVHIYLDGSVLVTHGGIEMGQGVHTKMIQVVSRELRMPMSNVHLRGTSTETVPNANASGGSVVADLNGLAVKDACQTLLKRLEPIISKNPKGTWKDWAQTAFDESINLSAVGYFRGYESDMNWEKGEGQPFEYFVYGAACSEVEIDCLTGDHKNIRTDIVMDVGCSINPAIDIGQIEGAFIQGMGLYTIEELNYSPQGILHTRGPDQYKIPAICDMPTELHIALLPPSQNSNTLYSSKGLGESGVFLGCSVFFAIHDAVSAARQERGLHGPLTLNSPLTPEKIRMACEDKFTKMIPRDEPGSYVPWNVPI

[2] = biological target: T2, aldehyde oxidase (AOX) (Cavia porcellus, UniProt H9TB17); conditions: guinea pig liver cytosol, mean ± SEM; estimate, saturation incomplete
T2 sequence (H9TB17 1-1332): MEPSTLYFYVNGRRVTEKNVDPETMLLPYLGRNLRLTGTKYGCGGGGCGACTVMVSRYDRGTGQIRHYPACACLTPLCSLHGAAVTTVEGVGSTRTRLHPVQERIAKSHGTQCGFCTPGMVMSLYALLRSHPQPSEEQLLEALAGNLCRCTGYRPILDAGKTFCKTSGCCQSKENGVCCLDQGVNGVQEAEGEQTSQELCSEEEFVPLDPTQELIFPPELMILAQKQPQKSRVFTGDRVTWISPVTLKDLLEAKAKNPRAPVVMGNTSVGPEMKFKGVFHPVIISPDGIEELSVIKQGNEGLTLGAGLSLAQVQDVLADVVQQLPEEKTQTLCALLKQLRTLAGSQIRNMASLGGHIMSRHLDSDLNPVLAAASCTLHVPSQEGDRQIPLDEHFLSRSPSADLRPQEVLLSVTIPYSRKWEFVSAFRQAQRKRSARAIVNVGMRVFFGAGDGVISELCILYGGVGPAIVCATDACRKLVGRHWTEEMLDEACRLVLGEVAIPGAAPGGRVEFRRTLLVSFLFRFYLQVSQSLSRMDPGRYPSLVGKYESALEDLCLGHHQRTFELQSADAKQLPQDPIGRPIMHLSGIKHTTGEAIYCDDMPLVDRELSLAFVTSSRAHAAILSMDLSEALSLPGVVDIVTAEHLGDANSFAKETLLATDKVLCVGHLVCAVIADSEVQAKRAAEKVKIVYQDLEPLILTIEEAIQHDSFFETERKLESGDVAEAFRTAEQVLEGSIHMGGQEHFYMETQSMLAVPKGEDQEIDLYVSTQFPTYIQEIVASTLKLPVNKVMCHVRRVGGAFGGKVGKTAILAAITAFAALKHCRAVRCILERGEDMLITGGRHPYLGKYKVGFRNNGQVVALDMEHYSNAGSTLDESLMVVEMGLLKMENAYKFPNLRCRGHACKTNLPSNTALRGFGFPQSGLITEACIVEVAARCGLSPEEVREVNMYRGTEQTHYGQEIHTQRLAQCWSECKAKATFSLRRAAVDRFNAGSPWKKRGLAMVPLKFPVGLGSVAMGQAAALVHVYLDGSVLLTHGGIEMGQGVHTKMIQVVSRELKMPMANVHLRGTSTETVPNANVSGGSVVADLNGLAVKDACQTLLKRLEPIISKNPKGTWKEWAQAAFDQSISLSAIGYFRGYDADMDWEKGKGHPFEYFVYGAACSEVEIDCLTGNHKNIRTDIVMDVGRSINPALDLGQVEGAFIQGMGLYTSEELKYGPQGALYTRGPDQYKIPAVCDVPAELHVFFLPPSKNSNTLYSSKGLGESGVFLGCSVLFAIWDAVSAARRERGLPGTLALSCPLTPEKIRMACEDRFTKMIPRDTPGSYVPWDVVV

Which “Km / affinity vs wild type” value [1] does the source give for CN(Cc1cnc2nc(N)nc(N)c2n1)c1ccc(C(=O)N[C@@H](CCC(=O)O)C(=O)O)cc1 [Methotrexate, 4-amino-N^1^0-methylpteroglutamic acid] here?
The value was “lower Km and higher affinity; also recorded: Km that was similar to cytosolic AOX from rabbit liver”.

What about the “Methotrexate hydroxylation activity vs wild type” value [1] of the same molecule?
Its value is “slightly higher activity compared to the wild type”.

What about the Vmax [2] of the same molecule?
Its Vmax is 70 ± 10 pmol/min/mg.

Reference: PMC4574636 (Biochemical pharmacology, 2015)
